# In the METLIN SMRT retention time set (Domingo-Almenara et al. 2019):
# Experiment: gradient 5% acetonitrile 3 min, to 50% in 2 min, to 85% in 15 min, held 3 min, 100 µL/min
# Conditions: column: Zorbax Extend-C18 2.1 x 50 mm; eluents: water / acetonitrile, 0.1% formic acid
# Summary of the method: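 In both positive and negative ionization mode, a quadrupole time-of-flight mass spectrometer coupled to HPLC analyzed pure standards run in mixtures of ~100 molecules. The Zorbax Extend-C18 column (2.1 × 50 mm, 1.8 μm) was operated at 100 μL/min with water and acetonitrile, each containing 0.1% formic acid. The dead volume was 40 μL and the dwell volume 900 μL. Retention time came from adduct peaks that were computationally picked and individually inspected by hand.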
row,Structure (SMILES),RP-LC retention time
1,CCOC(=O)c1c(C)oc2nc(C)nc(Nc3ccc4c(c3)OCCO4)c12,1200 s
2,CN1CCn2cc(S(=O)(=O)Nc3ccc(F)c(F)c3)cc2C1=O,671 s
3,COc1ccc(C)cc1NC(=O)CCCn1cccc1,876 s
4,Cc1ccc(C)c(CNC(=O)C2CC(=O)N(c3ccc4oc(C)nc4c3)C2)c1 (centres undefined),753 s
5,CNC(=O)c1noc([C@@H]2CC(F)(F)CN2Cc2ccco2)n1,732 s
6,CCc1ccccc1NC(=O)Cc1nnc(-c2cnccn2)o1,685 s
7,COc1ccc(NC(=O)N2CCCC2c2nc(-c3ccc(F)cc3F)no2)c(OC)c1 (centres undefined),940 s
8,O=C1CCN(C(=O)[C@@H]2CCCN2C(=O)C2CCCCC2)CCCCCCN1,743 s
9,CCc1noc(C2(NC(=O)c3cccc(N(C)C)c3)CCCCC2)n1,867 s
10,CC12CC(NC(=O)N1c1cccc(C(=O)N3CCOCC3)c1)c1ccccc1O2 (centres undefined),663 s
11,Cc1cc(C)n(-c2ccnc(N3CCC(C(=O)N4CCSCC4)CC3)n2)n1,854 s
12,CCCOc1ccccc1C(=O)N(Cc1ccc(Br)o1)C1CCS(=O)(=O)C1 (centres undefined),927 s
13,Cc1cc(C)c2c(-n3cccc3)nn(CC(=O)NCc3cccc(Br)c3)c2n1,1020 s
14,CC1CCN(S(=O)(=O)c2ccc3c(c2)CCCC(=O)N3CC(=O)N2CCCC2)CC1,819 s
15,COc1ccc(N2CC(c3nc(-c4ccc(OC)c(OC)c4)no3)CC2=O)c(OC)c1 (centres undefined),743 s
16,CNC(=O)[C@@H]1CN(C(=O)c2cncc(Br)c2)C[C@H]1COC,576 s
17,Cc1cc(N2CCCCC2)nc(N2CCN(C(=O)c3ccc(C(C)(C)C)cc3)CC2)n1,855 s
18,O=C(Nc1ccccc1F)N1CCCC1c1nncn1-c1ccccc1 (centres undefined),683 s
19,O=C(CSc1c(-c2ccccc2)[nH]c2ccccc12)NCC1CCCO1 (centres undefined),753 s
20,CC(=O)O[C@]1(C(C)=O)CC[C@H]2[C@@H]3CCC4=CC(=O)CCC4=C3[C@@H](c3ccc(N(C)C)cc3)C[C@@]21C,874 s
21,CCc1csc(-c2ccc(S(=O)(=O)NCCN3CCC(C)CC3)s2)n1,718 s
22,COC(=O)c1ccc(CSc2nnc(NC(=O)c3cc(C)on3)s2)o1,737 s
23,CCc1nc(NC(=O)Cn2nc3c(cc2=O)CCCCC3)sc1C,828 s
24,CCOc1ccc(C(=O)N(c2ccccc2CC)C2C=CS(=O)(=O)C2)cc1OCC (centres undefined),840 s
25,Cc1cc(F)ccc1NC(=O)C1CCN(S(=O)(=O)c2cc(C(=O)N(C)C)cs2)CC1,758 s
26,CCNC(=O)c1n[nH]c2c1CC(C(C)(C)C)CC2 (centres undefined),840 s
27,Cc1cc2c(cc1S(=O)(=O)N1CCCC1C(=O)Nc1ccc3c(c1)OCCO3)OCC(=O)N2 (centres undefined),700 s

row,Structure (SMILES),RP-LC retention time
1,Cc1cc(C)c2c(N3CCSCC3)nc(C(=O)N3CCN(CC(C)C)CC3)nc2n1,580 s
2,COC(=O)c1cc(S(=O)(=O)N2CCCC2C(=O)Nc2ccc(C)c(C)c2)cn1C (centres undefined),939 s
3,COc1ccc2c3c([nH]c2c1)[C@H](C=C(C)C)N1C(=O)[C@@H]2CCCN2C(=O)[C@@H]1C3,871 s
4,CCNC(=O)Nc1ccc2c(c1)CN(Cc1sccc1C)CCO2,608 s
5,COc1ccc(C(=O)N2C[C@@H]3C[C@H]2C[C@@H]3NC(=O)c2cccs2)c(C)c1,741 s
6,Cc1ccccc1NC(=O)N1CCCC(C)(C(=O)NCc2ccc(F)cc2)C1 (centres undefined),899 s
7,O=C(NCCN1CCCCC1)C1CCN(c2cnn(Cc3ccccc3)c(=O)c2)CC1,614 s
8,CN1C(=O)Cc2cc(C(=O)NCc3ccc(F)c(Cl)c3)ccc21,766 s
9,Cc1ccc2[nH]cc(CCN3CC(C(=O)NC4CCCCCCC4)CC3=O)c2c1 (centres undefined),907 s
10,CCCCN(C)S(=O)(=O)c1cc(-c2nnc(C(C)C)o2)co1,984 s
11,Cc1ccc(C)c(CN2CCCN(CC(=O)NC(C)CCc3ccccc3)S2(=O)=O)c1 (centres undefined),1140 s
12,COc1ccc(C)cc1NC(=O)NCCn1c(C(F)(F)F)nc2cccnc21,807 s
13,CCOc1ccc(NC(=O)N(Cc2cccs2)C2CCN(CC)CC2)cc1,653 s
14,CN(C(=O)c1ccc(-c2cnc(N3CCCC3)nc2)cc1)C1CCCCC1,969 s
15,CN(C)C(=O)c1csc(S(=O)(=O)N2CCC(C(=O)NC3CC3)CC2)c1,626 s
16,CC1CN(C(=O)NCC2CCCO2)c2ccccc2O1 (centres undefined),754 s
17,CCCNC(=O)C1CCCN(C(=O)c2[nH]c(C)c(C(=O)OC)c2C)C1 (centres undefined),668 s
18,Cc1ccc(NC(=O)CSc2cc(N3CCCC(C)C3)ncn2)c(C)c1 (centres undefined),1100 s
19,COc1ccc(NC(=O)N2CCC3(CC2)N=C(c2ccc(F)cc2)C(=O)N3)c(OC)c1,773 s
20,COC(=O)c1cccc(NC(=O)c2nc(C)oc2C)c1,840 s
21,O=C(NCc1ccc(Br)cc1)C1CCN(C(=O)C2Sc3ccccc3NC2=O)CC1 (centres undefined),782 s
22,O=C1NCCCn2cc(S(=O)(=O)Nc3ccc(N4CCOCC4)cc3)cc21,596 s
23,c1ccc(C2(c3ccccc3)CC2C2=NCCN2)cc1 (centres undefined),732 s
24,COc1cc(NC(=O)Nc2nccn(-c3ccc(C)c(Cl)c3)c2=O)cc(OC)c1,1060 s
25,COCCN1C(=O)Cc2ccccc2C1C(=O)NCc1cc(F)ccc1F (centres undefined),738 s
26,O=C(NCc1cc(-c2ccc3c(c2)OCO3)on1)c1c(F)cccc1Cl,785 s
27,COc1ccc(Cl)cc1NC(=O)Cn1c(C)ncc(C(=O)NC2CCCC2)c1=O,791 s

# Now from value to molecule:
row,RP-LC retention time,Structure (SMILES)
1,1240 s,CC(C)Cc1csc(-c2csc(S(=O)(=O)NCc3ccc(Cl)cc3)c2)n1
2,1270 s,CSc1ccc(NC(=O)c2c(C)oc3ccn(Cc4ccc(F)cc4)c(=O)c23)cc1
3,648 s,O=C(Nc1ccc(F)c(Cl)c1)c1cn2c(n1)CCCC2
4,880 s,Cc1cccc(CNC(=O)Cc2csc3nc(-c4ccccc4)cn23)c1
5,926 s,COc1ccccc1NC(=O)c1ccc(NS(=O)(=O)c2cc(C)ccc2C)cc1
6,721 s,COc1cc(OC)c(NC(=O)Nc2c(-c3cccc(C)c3)nc3ccccn23)cc1Cl
7,652 s,O=C(c1cccc(Nc2c(-c3ccccc3)nc3cnccn23)c1)N1CCOCC1
8,700 s,Cc1ccc(-c2noc(C(=O)N3CCCC3)n2)cc1S(=O)(=O)N1CCN(c2ccccn2)CC1
9,652 s,CCOC(=O)C1=C(CN(C)Cc2ccccc2)NC(=O)NC1c1ccccc1 (centres undefined)
10,1110 s,COc1ccc(-c2noc(Cn3c(=O)n(C(C)C)c(=O)c4ccccc43)n2)cc1
11,609 s,Cc1oc(-c2[nH]ncc2C(=O)N(C)C)cc1S(=O)(=O)Nc1ccccc1
12,754 s,CCOc1ccc(N2CC(NC(=O)Nc3ccc(OC(F)F)cc3)CC2=O)cc1 (centres undefined)
13,1050 s,O=S(=O)(Oc1ccc(Cl)cc1)c1cccc2cccnc12
14,946 s,COC(=O)c1sc2ccccc2c1NC(=O)c1ccc(S(=O)(=O)N2CCCC2)cc1
15,839 s,Cc1cccc(NC(=O)NCCc2cn(CC(C)C)c3ncccc23)c1C
16,611 s,O=C(CCc1nnc2c3cc(-c4ccc(F)cc4)nn3ccn12)N1CCN(c2ccccn2)CC1
17,654 s,COc1ccc(-c2nc3ccc(C4=NNC(=O)CC4C)cc3[nH]2)cc1 (centres undefined)
18,774 s,COc1ccc2nc(OC3CCN(C(=O)c4ccc(S(C)(=O)=O)cc4)CC3)sc2c1

row,RP-LC retention time,Structure (SMILES)
1,932 s,Cc1cccc(OCc2nnc(SCC(=O)Nc3nc(-c4ccccc4)c(C)s3)o2)c1
2,708 s,CCn1cc(CCNC(=O)c2c(F)cccc2Cl)c2cccnc21
3,755 s,Cc1nc(N2CCN(c3ccccn3)CC2)nc2c1C(=O)CC(c1ccc(F)cc1)C2 (centres undefined)
4,1050 s,O=C(Nc1cnc(-c2ccccc2)nc1)c1ccc(Cl)cc1
5,982 s,COc1cccc(CNC(=O)C2(C)CCCN(C(=O)Nc3cccc(Cl)c3C)C2)c1 (centres undefined)
6,679 s,Cc1ccccc1NS(=O)(=O)c1cc2[nH]c(=O)[nH]c2cc1C
7,889 s,CN(CCc1noc(COc2ccccc2F)n1)C(=O)c1ccccc1F
8,1070 s,Cc1cccc(NS(=O)(=O)c2cn(CC(C)C)c3ncccc23)c1C
9,1310 s,CC(C)CCn1nc(-c2nc(-c3cccc(Cl)c3)no2)ccc1=O
10,740 s,Cc1oc(-c2[nH]ncc2C(=O)N(C)C)cc1S(=O)(=O)Nc1ccc(F)c(Cl)c1
11,1070 s,CCn1c(=O)c2ccccc2n(Cc2nc(-c3cccc(C)c3)no2)c1=O
12,910 s,Cc1ccc(CN2CCN(C3CCN(S(=O)(=O)c4cc(F)ccc4F)CC3)C(=O)C2=O)cc1
13,1320 s,CCCN(C(=O)Cc1ccccc1)c1nc(-c2ccccc2)cs1
14,713 s,COc1cc(-c2ccc(C)cc2)nc2ccc(NC(=O)c3ccco3)cc12
15,1110 s,CCn1cc(-c2nc(C(=O)Nc3ccc(OC)c(Cl)c3)cs2)c2cccnc21
16,858 s,COCc1cc2nn(CC(=O)Nc3ccc(C)cc3F)c(=O)n2c(-c2ccccc2)n1
17,680 s,Cc1cccn2cc(-c3ccc(NC(=O)c4ncccn4)cc3)nc12
